ChEMBL document CHEMBL1146633, “Synthesis and antimalarial evaluation of new 1,4-bis(3-aminopropyl)piperazine derivatives” (Bioorg Med Chem Lett, 2003)

Legend:
MRC5 [1] = assay: Cytotoxicity against human diploid embryonic lung cell line (MRC5 cells) using the colorimetric MTT assay; assay type: functional
[2] = target: T1, Histidine-rich protein PFHRP-II (Plasmodium falciparum) (UniProt P05227); assay: Vacuolar accumulation ratio (VAR) on beta-hematin inhibitory activity; assay type: functional
T1 sequence (whole entry): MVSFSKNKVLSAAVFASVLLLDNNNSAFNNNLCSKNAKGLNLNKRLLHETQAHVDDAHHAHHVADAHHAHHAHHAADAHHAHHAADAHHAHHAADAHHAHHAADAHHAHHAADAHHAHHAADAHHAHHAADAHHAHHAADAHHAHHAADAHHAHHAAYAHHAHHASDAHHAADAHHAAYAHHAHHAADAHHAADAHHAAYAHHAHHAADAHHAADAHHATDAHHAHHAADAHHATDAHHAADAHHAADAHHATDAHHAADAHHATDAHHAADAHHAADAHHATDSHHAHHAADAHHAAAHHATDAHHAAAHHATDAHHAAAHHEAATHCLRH

Plasmodium falciparum = assay: Antimalarial activity against chloroquine-resistant Plasmodium falciparum FcB1; assay type: functional, organism-based
MRC5 [3] = assay: Relative inhibitory activity to cytotoxicity as selectivity index (CC50/IC50); assay type: functional
[4] = target: T1, Histidine-rich protein PFHRP-II (Plasmodium falciparum); assay: Inhibition of 1-monooleoyl glycerol (MOG) induced beta-hematin formation at 200 uM; assay type: functional

Row | Compound | CC50 (MRC5 [1]) [µM] | VAR [2] | IC50 (Plasmodium falciparum) [µM] | Selectivity index (MRC5 [3]) | inhibition [4] [%]
1 | COc1ccc(C(=O)NCCCN2CCN(CCCN(CC(C)C)CC(C)C)CC2)cc1 | 57.7 | 3100 | 4.43 |  | 
2 | CC(C)CN(CCCN1CCN(CCCNc2ccnc3ccccc23)CC1)CC(C)C | 30 | 882000 | 0.0189 | 1587 | 
3 | CC(C)CN(CCCN1CCN(CCCNCc2ccc(Cl)cc2)CC1)CC(C)C | 13 | 475000 | 0.0406 |  | 
4 | CC(C)CN(CCCN1CCN(CCCNc2[nH]cnc3ncnc2-3)CC1)CC(C)C | 82 | 6200 | 1.23 | 67 | 53
5 | CC(C)CN(CCCN1CCN(CCCNC(=O)c2ccc(Cl)cc2)CC1)CC(C)C | 93 | 3400 | 5.27 | 18 | 0
6 | CC(C)CN(CCCN1CCN(CCCNCc2ccc3ccccc3c2)CC1)CC(C)C | 6.5 | 475000 | 0.121 | 54 | 98
7 | CC(C)CN(CCCN1CCN(CCCNc2nc3ccccc3o2)CC1)CC(C)C | > 100 | 298000 | 1.33 | >75 | 
8 | CC(C)CN(CCCN1CCN(CCCNc2cnccn2)CC1)CC(C)C | 80 | 3600 | 0.531 | 151 | 
9 | CC(C)CN(CCCN1CCN(CCCNC(=O)c2ccncc2)CC1)CC(C)C | > 100 | 3200 | 1.55 | 65 | 0
10 | CC(C)CN(CCCN1CCN(CCCNc2nc3ccccc3[nH]2)CC1)CC(C)C | 16 | 388000 | 0.0873 | 183 | 
11 | CC(C)CN(CCCN1CCN(CCCNc2ccnc3cc(Cl)ccc23)CC1)CC(C)C |  | 597000 |  |  | 
12 | CC(C)CN(CCCN1CCN(CCCNc2ccc([N+](=O)[O-])cn2)CC1)CC(C)C | 49 | 3800 | 0.758 | 65 | 53
13 | CC(C)CN(CCCN1CCN(CCCNCc2ccccc2)CC1)CC(C)C | 21 | 476000 | 0.454 | 46 | 
14 | CC(C)CN(CCCN1CCN(CCCNC(=O)c2ccc3ccccc3c2)CC1)CC(C)C | 44 | 3300 | 0.672 | >65 | 54
15 | CCN(CC)CCCC(C)Nc1ccnc2cc(Cl)ccc12 (stereo unspecified) [CHLOROQUINE] | 50 | 5310 |  |  | 
16 | CC(C)CN(CCCN1CCN(CCCNCc2ccncc2)CC1)CC(C)C | 30 | 504000 | 0.842 | 36 | 
17 | COc1ccc(CNCCCN2CCN(CCCN(CC(C)C)CC(C)C)CC2)cc1 | 12 | 476000 | 0.111 |  | 
